From BindingDB's records for doi:10.1016/j.bmcl.2009.07.031 (Merck Research Laboratory, 2009)

Tests used:
[1] = Inhibition of HIV1 reverse transcriptase Y181C mutant by SPA assay
[2] = Inhibition of HIV1 reverse transcriptase by SPA assay

Cc1ccc2c(c1)CCCN2C(=O)SCC(=O)Nc1ccc(S(N)(=O)=O)cc1Cl
IC50 [1]: 1300 nM

NS(=O)(=O)c1ccc(NC(=O)CCC(=O)N2CCCc3cc(Cl)cc(Cl)c32)c(Cl)c1
IC50 [2]: 194 nM

N#Cc1ccc(NC(=O)CSC(=O)N2CCCc3cc(Cl)cc(Cl)c32)c(Cl)c1
IC50 [2]: 7 nM
IC50 [1]: 95 nM

NS(=O)(=O)c1ccc(NC(=O)CSC(=O)N2CCCc3cccc(Cl)c32)c(Cl)c1
IC50 [2]: 2 nM
IC50 [1]: 31 nM

NS(=O)(=O)c1ccc(NC(=O)COC(=O)N2CCCc3cc(Cl)cc(Cl)c32)c(Cl)c1
IC50 [2]: 19 nM
IC50 [1]: 116 nM

Cc1cc(C)c(N(C)C(=O)SCC(=O)Nc2ccc(S(N)(=O)=O)cc2Cl)c(C)c1
IC50 [2]: 8 nM
IC50 [1]: 80 nM

NCCCNC(=O)c1ccc(NC(=O)CSC(=O)N2CCCc3cc(Cl)cc(Cl)c32)c(Cl)c1
IC50 [2]: 2 nM
IC50 [1]: 7 nM

Cc1cccc2c1N(C(=O)SCC(=O)Nc1ccc(S(N)(=O)=O)cc1Cl)CCC2
IC50 [2]: 6 nM
IC50 [1]: 61 nM

O=C(CSC(=O)N1CCCc2cc(Cl)cc(Cl)c21)Nc1ccc(C(=O)NCc2ccccc2)cc1Cl
IC50 [2]: 2 nM
IC50 [1]: 4 nM

CS(=O)(=O)c1ccc(NC(=O)CSC(=O)N2CCCc3cc(Cl)cc(Cl)c32)c(Cl)c1
IC50 [2]: 4 nM
IC50 [1]: 11 nM

NS(=O)(=O)c1ccc(NC(=O)CNC(=O)N2CCCc3cc(Cl)cc(Cl)c32)c(Cl)c1
IC50 [2]: 336 nM

O=C(CSC(=O)N1CCCc2cc(Cl)cc(Cl)c21)Nc1ccccc1Cl
IC50 [2]: 4 nM
IC50 [1]: 175 nM

NS(=O)(=O)c1ccc(NC(=O)CSC(=O)N2CCCc3cc(Cl)ccc32)c(Cl)c1
IC50 [2]: 8 nM

NS(=O)(=O)c1ccc(NC(=O)CSC(=O)N2CCCc3cc(Cl)cc(Cl)c32)c(Cl)c1
IC50 [1]: 4 nM
